Our source for the activation, AC50 and Emax values is patent US12122778B2, “Activating pyruvate kinase R” (Novo Nordisk Health Care AG, priority 2018, dated 2024).

The structures appear in SMILES notation.

One experiment deals with PKR(R510Q) (Homo sapiens, UniProt P30613, R510Q). Kind of experiment: Luminescence Biochemical Assay (Kinase Glo Plus), PKR R510Q mutant. The following applies: without FBP; for activation at 1.54 µM: 1.54 μM compound, read-out: AC50 LUM KGP woFBP % Fold@1.54 μM mean; for AC50: read-out: AC50 LUM KGP woFBP AC50 μM gmean; for Emax: read-out: AC50 LUM KGP woFBP MAX % FOLD mean. The protocol: (§1) In some embodiments, a PKR Activating Compound can have: (1) an AC50 value of less than 0.1 μM (e.g., compounds with AC50 values of “+++” in Table 13), 0.1-1.0 μM (e.g., compounds with AC50 values of “++” in Table 13), or 1.01-40 μM (e.g., compounds with AC50 values of “+” in Table 13); (2) a MAX % Fold of 75%-250%, 250-500%, or 75%-500%; and/or (3) a % Fold@1.54 μM of 75%-250%, 250-500%, or 75%-500%. In some embodiments, a PKR Activating Compound has (1) an AC50 value of less than 1.0 μM; (2) a MAX % Fold of 75%-500%; and/or (3) a % Fold@1.54 μM of 75%-500%.
(§2) The phosphorylation of Adenosine-5′-diphosphate (ADP) by various mutants of PKR was determined by the Kinase Glo Plus Assay (Promega) in the presence or absence of FBP [D-Fructose-1,6-diphosphate; BOC Sciences, CAS: 81028-91-3] as follows. Unless otherwise indicated, all reagents were purchased from Sigma-Aldrich. All reagents were prepared in buffer containing 50 mM Tris-HCl, 100 mM KCl, 5 mM MgCl2, and 0.01% Triton X100, 0.03% BSA, and 1 mM DTT. Enzyme and PEP [Phospho(enol) pyruvic acid] were added at 2× to all wells of an assay-ready plate containing serial dilutions of test compounds or DMSO vehicle. Final enzyme concentrations for PKR(wt), PKR(R510Q), and PKR(G332S) were 0.8 nM, 0.8 nM, and 10 nM respectively. Final PEP concentration was 100 μM. The Enzyme/PEP mixture was incubated with compounds for 30 minutes at RT before the assay was initiated with the addition of 2×ADP [Adenosine-5′-diphosphate] and KinaseGloPlus. Final concentration of ADP was 100 μM. […] For assays containing FBP, that reagent is added at 30 μM upon reaction initiation. Reactions were allowed to progress for 45 minutes at RT until luminescence was recorded by the BMG PHERAstar FS Multilabel Reader. All compounds were tested in triplicate at concentrations ranging from 42.5 μM to 2.2 nM in 0.83% DMSO.
(§3) Luminescence values were converted to % Fold increase by normalizing to the average of the DMSO control and multiplying by 100. Max, min, slope and AC50 were determined by the standard four parameter fit algorithm of ActivityBase XE Runner. Compounds were evaluated with three parameters—AC50, MAX % Fold, and % Fold@1.54 μM (FIG. 1). The AC50 value for a compound is the concentration (μM) corresponding to the midway between the maximum and minimum values of the four parameter logistic curve fit (i.e., at which the % fold increase along the four parameter logistic curve fit is halfway between MAX % Fold and MIN % Fold (% Fold Midpoint)), MAX % Fold is the highest fold increase observed at any concentration of compound, and % Fold@1.54 μM is the fold increase at a compound concentration of 1.54 μM. The parameter % Fold@1.54 μM was selected to capture elements of both the AC50 and MAX % Fold and to provide a ranking based on both potency and effect. The compound concentration of 1.54 μM was chosen as one that can optimally differentiate the set of compounds based on the range of activities observed.
(§4) As set forth in Table 13 below, AC50 values (columns A, D, G) are defined as follows: ≤0.1 μM (+++); >0.1 μM and ≤1.0 μM (++); >1.0 μM and ≤40 μM (+); >40 μM (0). Max % FOLD values (columns B, E, H) are defined as follows: ≤75% (+); >75% and ≤250% (++); >250% and ≤500% (+++). % Fold@1.54 μM values (columns C, F, J) are defined as follows: ≤75% (+); >75% and ≤250% (++); >250% and ≤50000 (+++).
(In Kinase-Glo more light means more ATP remaining.)

For the next experiment, the target named is PKR(wt) (Homo sapiens, UniProt P30613). Put plainly: Luminescence Biochemical Assay (Kinase Glo Plus), wild type PKR. Particulars: without FBP; for activation at 1.54 µM: 1.54 μM compound, read-out: AC50 LUM KGP woFBP % Fold@1.54 μM mean; for AC50: read-out: AC50 LUM KGP woFBP AC50 μM gmean; for Emax: read-out: AC50 LUM KGP woFBP MAX % FOLD mean. The procedure:
as §1, §2, §3, §4

Chain of PKR(wt) (P30613 whole entry): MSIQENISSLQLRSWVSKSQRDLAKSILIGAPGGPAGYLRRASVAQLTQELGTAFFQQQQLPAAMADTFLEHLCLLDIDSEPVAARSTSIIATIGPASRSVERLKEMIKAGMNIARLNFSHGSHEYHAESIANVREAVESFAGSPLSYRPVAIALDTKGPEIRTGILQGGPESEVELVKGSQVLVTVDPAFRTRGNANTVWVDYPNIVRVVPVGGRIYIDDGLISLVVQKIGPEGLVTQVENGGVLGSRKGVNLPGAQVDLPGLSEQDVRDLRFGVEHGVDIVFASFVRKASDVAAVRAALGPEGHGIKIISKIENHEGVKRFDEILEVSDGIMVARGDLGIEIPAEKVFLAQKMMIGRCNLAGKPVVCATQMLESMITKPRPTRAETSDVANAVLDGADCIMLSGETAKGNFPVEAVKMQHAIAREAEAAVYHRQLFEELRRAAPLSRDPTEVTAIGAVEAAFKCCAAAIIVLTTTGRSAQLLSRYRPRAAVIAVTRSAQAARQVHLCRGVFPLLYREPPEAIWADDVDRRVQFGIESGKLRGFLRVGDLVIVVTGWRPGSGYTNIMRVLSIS
Chain of PKR(R510Q) (P30613 whole entry R510Q): as the sequence (P30613 whole entry) above, with R510Q counted along it

In general, AC50 refers to the concentration giving half of the maximal activity seen. As to `COc1ccc(S(=O)(=O)N2CC3=C(CN(C(=O)[C@H](O)c4ccccc4)C3)C2)cc1F` [Example 18-17, (2R)-1-[5-(3-fluoro-4-methoxybenzenesulfonyl)-1H,2H,3H,4H,5H,6H-pyrrolo[3,4-c]pyrrol-2-yl]-2-hydroxy-2-phenylethan-1-one], on PKR(R510Q), the activation at 1.54 µM was 250 to 50000%, the AC50 is at most 0.1 µM and the Emax is 250 to 500%. In addition, on PKR(wt), the activation at 1.54 µM fell in the range of 75 to 250%, the AC50 was at most 0.1 µM and the Emax lay within 75 to 250%.

Take `COc1ccc(CNC(=O)N2CC3=C(C2)CN(S(=O)(=O)c2cccc(F)c2)C3)cc1` [Example 20-7, 5-(3-Fluorobenzenesulfonyl)-N-[(4-methoxyphenyl)methyl]-1H,2H,3H,4H,5H,6H-pyrrolo[3,4-c]pyrrole-2-carboxamide]: on PKR(R510Q), the activation at 1.54 µM is 250 to 50000%, the AC50 was 0.1 to 1 µM and the Emax lay within 250 to 500%.

Consider `Cc1cc(CNC(=O)N2CC3=C(C2)CN(S(=O)(=O)c2ccc4ncsc4c2)C3)on1` [Example 21-9, 5-(1,3-Benzothiazole-6-sulfonyl)-N-[(3-methyl-1,2-oxazol-5-yl)methyl]-1H,2H,3H,4H,5H,6H-pyrrolo[3,4-c]pyrrole-2-carboxamide], for which, on PKR(R510Q), the activation at 1.54 µM lay within 75 to 250%, the AC50 is 0.1 to 1 µM and the Emax lay within 250 to 500%. Moreover, at PKR(wt), the activation at 1.54 µM lay in the range of 75 to 250%, the AC50 was in the range of 0.1 to 1 µM and the Emax is 250 to 500%.

Regarding `COc1ccc(CNC(=O)N2CC3=C(C2)CN(S(=O)(=O)c2ccc(OC)c(OC)c2)C3)cc1` [Example 20-31, 5-(3,4-Dimethoxybenzenesulfonyl)-N-[(4-methoxyphenyl)methyl]-1H,2H,3H,4H,5H,6H-pyrrolo[3,4-c]pyrrole-2-carboxamide], on PKR(R510Q), the activation at 1.54 µM is 75 to 250%, the AC50 was in the range of 1 to 40 µM and the Emax was in the range of 75 to 250%.

For `C[C@@H](C(=O)N1CC2=C(C1)CN(S(=O)(=O)c1ccc(Cl)s1)C2)c1ccccc1` [Example 19-1, (2R)-1-{5-[(5-chlorothiophen-2-yl)sulfonyl]-1H,2H,3H,4H,5H,6H-pyrrolo[3,4-c]pyrrol-2-yl}-2-phenylpropan-1-one], on PKR(R510Q), the activation at 1.54 µM was in the range of 75 to 250%, the AC50 fell in the range of 1 to 40 µM and the Emax lay within 75 to 250%.

With `O=C([C@H](O)c1ccccc1)N1CC2=C(C1)CN(S(=O)(=O)c1cccc(F)c1)C2` [Example 18-50, (2R)-1-[5-(3-fluorobenzenesulfonyl)-1H,2H,3H,4H,5H,6H-pyrrolo[3,4-c]pyrrol-2-yl]-2-hydroxy-2-phenylethan-1-one], at PKR(R510Q), the activation at 1.54 µM fell in the range of 75 to 250%, the concentration at half-maximal activity (AC50) lay within 0.1 to 1 µM and the Emax was 250 to 500%. Further, at PKR(wt), the activation at 1.54 µM fell in the range of 75 to 250%, the AC50 was 0.1 to 1 µM and the Emax fell in the range of 75 to 250%.

As for `CC(C)Oc1cccc(CNC(=O)N2CC3=C(C2)CN(S(=O)(=O)c2ccc4ncsc4c2)C3)c1` [Example 21-21, 5-(1,3-Benzothiazole-6-sulfonyl)-N-{[3-(propan-2-yloxy)phenyl]methyl}-1H,2H,3H,4H,5H,6H-pyrrolo[3,4-c]pyrrole-2-carboxamide], at PKR(R510Q), the activation at 1.54 µM is 75 to 250%, the AC50 lay within 1 to 40 µM and the Emax fell in the range of 75 to 250%. On PKR(wt), the activation at 1.54 µM was 75 to 250%, the AC50 was in the range of 0.1 to 1 µM and the Emax fell in the range of 75 to 250%.

For `O=C(NCc1ncco1)N1CC2=C(C1)CN(S(=O)(=O)c1ccc3ncsc3c1)C2` [Example 21-29, 5-(1,3-Benzothiazole-6-sulfonyl)-N-(1,3-oxazol-2-ylmethyl)-1H,2H,3H,4H,5H,6H-pyrrolo[3,4-c]pyrrole-2-carboxamide], on PKR(R510Q), the activation at 1.54 µM was 75 to 250%, the AC50 is 0.1 to 1 µM and the Emax was 75 to 250%. On PKR(wt), the activation at 1.54 µM is 250 to 50000%, the AC50 was in the range of 0.1 to 1 µM and the Emax fell in the range of 250 to 500%.

In the case of `CC(C)Oc1ccc(CNC(=O)N2CC3=C(C2)CN(S(=O)(=O)c2ccc4ncsc4c2)C3)cc1` [Example 21-31, 5-(1,3-Benzothiazole-6-sulfonyl)-N-{[4-(propan-2-yloxy)phenyl]methyl}-1H,2H,3H,4H,5H,6H-pyrrolo[3,4-c]pyrrole-2-carboxamide], at PKR(R510Q), the activation at 1.54 µM is 75 to 250%, the AC50 fell in the range of 1 to 40 µM and the Emax lay within 75 to 250%. Also, on PKR(wt), the activation at 1.54 µM was in the range of 75 to 250%, the half-maximal activity concentration (AC50) fell in the range of 1 to 40 µM and the Emax is 75 to 250%.

For `O=C([C@H](O)c1ccccc1)N1CC2=C(C1)CN(S(=O)(=O)c1ccc(C(F)(F)F)nc1)C2` [Example 18-14, (2R)-2-hydroxy-2-phenyl-1-(5-{[6-(trifluoromethyl)pyridin-3-yl]sulfonyl}-1H,2H,3H,4H,5H,6H-pyrrolo[3,4-c]pyrrol-2-yl)ethan-1-one], on PKR(R510Q), the activation at 1.54 µM fell in the range of 75 to 250%, the concentration at half-maximal activity (AC50) was in the range of 1 to 40 µM and the Emax fell in the range of 75 to 250%. Also, on PKR(wt), the activation at 1.54 µM was 75 to 250%, the half-maximal activity concentration (AC50) was 1 to 40 µM and the Emax lay in the range of 75 to 250%.

Consider `Cc1nn(C)c(Cl)c1S(=O)(=O)N1CC2=C(CN(C(=O)[C@H](C)c3ccccc3)C2)C1` [Example 19-2, (2R)-1-{5-[(5-chloro-1,3-dimethyl-1H-pyrazol-4-yl)sulfonyl]-1H,2H,3H,4H,5H,6H-pyrrolo[3,4-c]pyrrol-2-yl}-2-phenylpropan-1-one], for which, at PKR(R510Q), the activation at 1.54 µM lay in the range of 75 to 250%, the AC50 lay within 1 to 40 µM and the Emax is 75 to 250%.

Consider `O=C(N1CC2=C(C1)CN(S(=O)(=O)c1ccc3occc3c1)C2)C1(O)CC1` [Example 1-4, (5-(Benzofuran-5-ylsulfonyl)-3,4,5,6-tetrahydropyrrolo[3,4-c]pyrrol-2(1H)-yl)(1-hydroxycyclopropyl)methanone], for which, on PKR(wt), the activation at 1.54 µM was in the range of 75 to 250%, the AC50 lay in the range of 0.1 to 1 µM and the Emax lay within 250 to 500%.

Consider `Cc1nc(C)c(C(=O)N2CC3=C(C2)CN(S(=O)(=O)c2ccc4occc4c2)C3)s1` [Example 18-85, 5-[5-(1-Benzofuran-5-sulfonyl)-1H,2H,3H,4H,5H,6H-pyrrolo[3,4-c]pyrrole-2-carbonyl]-2,4-dimethyl-1,3-thiazole], for which, at PKR(wt), the activation at 1.54 µM was in the range of 75 to 250%, the AC50 fell in the range of 1 to 40 µM and the Emax is 75 to 250%.

Take `O=C(NCc1cccnc1)N1CC2=C(C1)CN(S(=O)(=O)c1ccc3occc3c1)C2` [Example 3-4, 5-(Benzofuran-5-ylsulfonyl)-N-(pyridin-3-ylmethyl)-3,4,5,6-tetrahydropyrrolo[3,4-c]pyrrole-2(1H)-carboxamide]: on PKR(wt), the activation at 1.54 µM fell in the range of 75 to 250%, the concentration at half-maximal activity (AC50) lay within 0.1 to 1 µM and the Emax lay within 75 to 250%.

Regarding `NS(=O)(=O)c1ccc(S(=O)(=O)N2CC3=C(CN(C(=O)[C@H](O)c4ccccc4)C3)C2)cc1` [Example 13-1, (R)-4-((5-(2-hydroxy-2-phenylacetyl)-3,4,5,6-tetrahydropyrrolo[3,4-c]pyrrol-2(1H)-yl)sulfonyl)benzenesulfonamide], at PKR(wt), the activation at 1.54 µM lay within 75 to 250%, the AC50 lay within 1 to 40 µM and the Emax was 75 to 250%.
